For one test, the system named is digitoxin antibodies. The experiment in a line: Column radioimmunoassay for digitoxin, Example 4. The format is binding, rabbit. The following applies: control = 100%, PBS buffer with 0.1% Tween 20. On the procedure: 90 mg of digitoxin was suspended in 4 ml of ethanol at ambient temperature. 4 ml of a 0.1M sodium metaperiodate solution was added dropwise. The resulting solution was stirred for 25 minutes and 4 drops of 0.1M ethylene glycol was added. This solution was slowly added to 130 mg of bovine serum albumin in 4 ml of water previously adjusted to pH 9.5 with 5% K2 CO3. The pH was maintained between 9.0 and 9.5 with 5% K2 CO3. After 45 minutes, 0.05 g of NaBH4 in 4 ml of water was added. After 3 hours the pH was lowered to 6.5 with 1M formic acid. After 1 hour, the pH was raised to pH 8.5 with 1M NH4 OH and the mixture was dialyzed against distilled water overnight at 4° C. The next day, the suspension was centrifuged for 2 hours at 1500 rpm. The supernatant was concentrated to 6 ml in an Amicon U-2 ultrafilter, available from Amicon Corporation, Lexington, Massachusetts, and lyophilized.
The same procedure as described in Example 3 was followed except that the digitoxin-bovine serum albumin conjugate was prepared according to the method described in procedure a. above and this conjugate was dissolved in a few drops of dilute NaOH before being mixed with the PBS buffer.
The same procedure as described in Example 3 was followed.
The same procedure as described in Example 3 was followed except that the columns were equilibrated with 10 ml of PBS buffer containing 0.1% Tween 20, a detergent available from the Atlas Powder Company, Wilmington, Delaware, and that PBS buffer containing 0.1% Tween 20 was used in place of PBS buffer. The standard digitoxin solutions were prepared to the following concentrations: 5 ng/ml, 10 ng/ml, 20 ng/ml, 30 ng/ml, 40 ng/ml, and 50 ng/ml.
The results were as follows (with % bound being calculated based on setting 100% bound as the % bound of the control): […]

The test system of another test is digoxin antibodies. The experiment in a line: Column radioimmunoassay for digoxin (competition with 3-0-succinyl digoxigenin tyrosine 125I). The following applies: control = 100%, 30 + 30 minutes, pH 7.0. It counts as binding, rabbit. The protocol:
400 mg of digoxin was suspended in 20 ml of absolute ethanol at ambient temperature. 0.45 g of sodium metaperiodate in 20 ml of water was added dropwise with stirring. After 25 minutes, 0.5 ml of 1M ethylene glycol was added. Five minutes later, this reaction mixture was added dropwise with stirring to 560 mg of bovine serum albumin in 20 ml of water previously adjusted to pH 9.5 with 5% K2 CO3. The pH was maintained between 9.0 and 9.5 by the dropwise addition of 5% K2 CO3. After 45 minutes 0.3 g of sodium borohydride in 20 ml of water was added. Three hours later, the pH was lowered to 6.5 with 1M formic acid. After 1 hour, the pH was raised to 8.5 with 1M NH4 OH. The entire reaction mixture was then dialyzed against distilled water overnight at 4° C. The next day, the pH was lowered to 4.5 with 0.1N HCl. After 1 hour at ambient temperature and 3 hours at 4° C., the suspension was centrifuged for 1 hour at 1500 rpm. The precipitate was dissolved in 21 ml of 0.15M NaHCO3, dialyzed against distilled water for 4 days, and lyophilized.
Rabbits were injected with inocula consisting of a 50/50 mixture of 4 mg/ml digoxin-bovine serum albumin conjugate, prepared according to the method described in procedure a., in 0.0075M phosphate-0.15M NaCl buffer (pH 7.0) and Freund's complete adjuvant. Four sites along the neck and back of the animals and each footpad were injected with 0.1 ml of this mixture. This procedure was repeated on the first and third weeks. Also, every second week the rabbits were injected intramuscularly with 0.4 ml of the inoculum. At one month intervals, ear bleedings were taken.
One (1.0) gram of CNBr-activated Sepharose 4B available from Pharmacia AB, Uppsala, Sweden, was added to 200 ml of 0.001N HCl, mixed for 15 minutes, and filtered under vacuum. The swollen Sepharose 4B was then washed with 200 ml of PBS buffer (0.0075 M phosphate-0.15M NaCl, pH 7.0) and resuspended in 3.0 ml of PBS buffer. Whole, unfractionated, diluted antiserum from procedure b. was added with stirring. The reaction mixture was stirred for 2 hours at ambient temperature and then for 22 hours at 4° C. The antibody-coupled Sepharose 4B suspension was washed with 400 ml of PBS buffer and an equal volume of PBS buffer containing 0.1% NaN3 was added. This mixture was in turn diluted with the addition of a 50% suspension of Sepharose 4B in distilled water to give a final dilution of antibody-coupled Sepharose 4B which would bind about half of the radioactive labeled antigen following procedure d. below where the fluid sample tested contained no digoxin. Two (2.0) ml volumes of the diluted antibody-coupled Sepharose 4B were added to 3 ml plastic Stylex syringes, available from Pharmaseal Laboratories, Glendale, California, fitted with polyethylene support disks to give 1 ml Sepharose 4B columns.
The columns were then equilibrated with 10 ml volumes of PBS buffer and allowed to drain. Standard digoxin solutions were prepared for the following digoxin concentrations: 0.5 ng/ml, 1.0 ng/ml, 2.0 ng/ml, 3.0 ng/ml, 4.0 ng/ml, and 5.0 ng/ml. A control containing no digoxin and the six digoxin standards were added to columns prepared according to procedure c. above in 0.5 ml volumes and allowed to incubate for 30 minutes. The reference sample containing 3-0-succinyl digoxigenin tyrosine ^125 I solution was then added to each column in 0.5 ml portions and allowed to incubate for 30 minutes. The columns were then counted using a Gammacord gamma counter. The columns were washed three times with 3.0 ml volumes of PBS buffer and counted again. The results were as follows (with % bound being calculated based on setting 100% as the % bound of the control): […]

Test [1] has as its system HPL antibodies. The experiment in a line: Column saturation radioimmunoassay for human placental lactogen (competition with 125I-HPL), Example 2. The following applies: control = 100%, 30 minutes, pH 8.0. The format is binding, rabbit. On the procedure: Rabbits were injected with priming inocula consisting of a 50/50 mixture of 2.8 mg/ml HPL antigen in physiological saline solution (0.9%) and Freund's complete adjuvant. Each footpad was injected with 0.2 ml of this mixture. On days 21, 23, 56, 58, 91, 93, 126 and 128, 0.5 ml of booster inocula per day was injected intravenously into the animals. The booster inocula consisted of 0.7 mg/ml HPL antigen in physiological saline solution. Test bleedings were made on days 36 and 70, and on day 140 the animals were exsanguinated
The columns were prepared as in Example 1 using whole unfractionated HPL antiserum from procedure a. above.
The procedure as in Example 1c. was followed except that the borate-human serum albumin buffer was prepared to pH 8.0, the incubation times were 30 minutes, and the reference sample contained HPL labeled with ^125 I. […] The results were as follows (with % bound being calculated based on setting 100% bound as the % bound of the control): […]

Test [2] has as its system HPL antibodies. Kind of test: Column enzyme immunoassay for HPL with peroxidase labeled HPL, Example 6. The format is binding. The following applies: for % Color Bound: control = 100; for OD460: optical density of washings at 460 nm (control 1.2). The protocol:
HPL was labeled with peroxidase according to the method described in Immunochemistry 6: 43(1969) with the following modifications: 10 mg (HPL and 10 mg horseradish peroxidase were dissolved in 1.4 ml of 0.05M carbonate buffer (pH 9), 0.05 ml of 3% glutaraldehyde solution was added to the mixture. The mixture was then rotated at ambient temperature for 90 minutes and then dialyzed against 128 ml of 0.1M borate buffer (pH 8) with several buffer changes.
The same procedure as in Example 1b was followed.
The packed columns were equilibrated by adding 20 ml portions of a borate buffer (pH 9) to the columns and allowing them to drain. The borate buffer was prepared as in Example 1c. HPL standards were prepared for the following HPL concentrations 1000 ng/ml and 62 ng/ml. A control containing no HPL and the two HPL standards were added to columns, prepared according to procedure b above in 0.5 ml volumes and allowed to incubate for 25 minutes. The reference sample containing peroxidase labeled HPL, prepared as in procedure a. above, was then added to each column in 0.5 ml portions and allowed to incubate for 25 minutes. The columns were washed with 10 ml volumes of 0.1M borate buffer (pH 8) followed by 3 ml volumes of 0.1M phosphate buffer (pH 6). A substrate-indicator solution, prepared by mixing 0.28 ml of 0.03% H2 O2 in water, 0.1 ml of 0.25% 3,3'-dimethylbenzidine, and 0.12 ml of 0.1M phosphate buffer (pH 6), was added to each column and allowed to incubate for 10 minutes. The columns were each washed with a 3 ml of volume of 0.1N HCl and the optical density (OD) of the washings were read at 460 nm with the following results: […]

Results on three molecules are retold here after patent US4039652A, “Column method of immunoassay employing an immobilized binding partner” (Miles Laboratories, Inc., priority 1973, dated 1977).

Take `C[C@H]1O[C@@H](O[C@H]2[C@@H](O)C[C@H](O[C@H]3[C@@H](O)C[C@H](O[C@H]4CC[C@@]5(C)[C@H](CC[C@@H]6[C@@H]5CC[C@]5(C)[C@@H](C7=CC(=O)OC7)CC[C@]65O)C4)O[C@@H]3C)O[C@@H]2C)C[C@H](O)[C@@H]1O` [Digitoxin, digitoxin]: the “% Bound” value in the test on digitoxin antibodies (Digitoxin concentration 5.0 ng/ml) is on record as 83%; with digitoxin antibodies (Digitoxin concentration 10.0 ng/ml), 73.5%; in the test on digitoxin antibodies (Digitoxin concentration 20.0 ng/ml) it was 64%; in the test with digitoxin antibodies (Digitoxin concentration 30.0 ng/ml) it was 56.6%; in the test on digitoxin antibodies (Digitoxin concentration 40.0 ng/ml), 50.2%; with digitoxin antibodies (Digitoxin concentration 50.0 ng/ml), 42%.

`C[C@H]1O[C@@H](O[C@H]2[C@@H](O)C[C@H](O[C@H]3[C@@H](O)C[C@H](O[C@H]4CC[C@@]5(C)[C@H](CC[C@@H]6[C@@H]5C[C@@H](O)[C@]5(C)[C@@H](C7=CC(=O)OC7)CC[C@]65O)C4)O[C@@H]3C)O[C@@H]2C)C[C@H](O)[C@@H]1O` [Digoxin, digoxin]: the “% Bound” value came out at 92% with digoxin antibodies (Digoxin concentration 0.5 ng/ml); 79.5% with digoxin antibodies (Digoxin concentration 1.0 ng/ml); 60.2% with digoxin antibodies (Digoxin concentration 2.0 ng/ml); 49.0% in the test on digoxin antibodies (Digoxin concentration 3.0 ng/ml); 41.3% with digoxin antibodies (Digoxin concentration 4.0 ng/ml); 34.7% with digoxin antibodies (Digoxin concentration 5.0 ng/ml).

B1: HPL: human placental lactogen (HPL) (protein, UniProt P0DML2 27-217, looked up)
Chorionic somatomammotropin …: VQTVPLSRLFDHAMLQAHRAHQLAIDTYQEFEETYIPKDQKYSFLHDSQTSFCFSDSIPTPSNMEETQQKSNLELLRISLLLIESWLEPVRFLRSMFANNLVYDTSDSDDYHLLKDLEEGIQTLMGRLEDGSRRTGQILKQTYSKFDTNSHNHDALLKNYGLLYCFRKDMDKVETFLRMVQCRSVEGSCGF
Turning to B1, the “% Bound (labeled HPL)” value amounted to 98% with HPL antibodies [1] (HPL concentration 1 ng/ml), 70% in the test on HPL antibodies [1] (HPL concentration 15 ng/ml), 42% in the test on HPL antibodies [1] (HPL concentration 62 ng/ml) and 9% in the test with HPL antibodies [1] (HPL concentration 1000 ng/ml). The “% Color Bound” value is 63% with HPL antibodies [2] (HPL concentration 62 ng/ml) and 35% with HPL antibodies [2] (HPL concentration 1000 ng/ml). For the same molecule, the OD460 came out at 0.96 in the test on HPL antibodies [2] (HPL concentration 62 ng/ml) and 0.78 with HPL antibodies [2] (HPL concentration 1000 ng/ml).
